From ChEMBL document CHEMBL1129829, “Synthesis and biological activity of P2P4 azapeptidomimetic P1-argininal and P1-ketoargininamide derivatives: a novel class of serine protease inhibitors” (Bioorg Med Chem Lett, 1997)

Legend:
Coagulation factor VII [1] = target: T1, Coagulation factor VII (Homo sapiens, UniProt P08709); assay: Compound was evaluated for its 50 percent inhibitory concentration against human Coagulation factor VII
T1 sequence (P08709 whole entry): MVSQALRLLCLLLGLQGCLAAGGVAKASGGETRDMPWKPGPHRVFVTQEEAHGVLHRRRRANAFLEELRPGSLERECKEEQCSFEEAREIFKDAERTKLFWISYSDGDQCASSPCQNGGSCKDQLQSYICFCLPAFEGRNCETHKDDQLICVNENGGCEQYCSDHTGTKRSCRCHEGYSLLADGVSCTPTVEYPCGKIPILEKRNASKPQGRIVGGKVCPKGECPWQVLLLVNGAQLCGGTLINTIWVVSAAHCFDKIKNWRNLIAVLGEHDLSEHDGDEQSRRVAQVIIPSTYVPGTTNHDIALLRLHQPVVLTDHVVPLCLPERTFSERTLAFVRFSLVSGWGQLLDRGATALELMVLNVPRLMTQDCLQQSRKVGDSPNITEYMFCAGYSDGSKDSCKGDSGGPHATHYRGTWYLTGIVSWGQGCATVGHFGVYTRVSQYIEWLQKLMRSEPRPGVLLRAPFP

Plasminogen [2] = target: T2, Plasminogen (Homo sapiens, UniProt P00747); assay: Compound was evaluated for its 50% inhibitory concentration against human protease enzyme plasmin
Coagulation factor X [3] = target: T3, Coagulation factor X (Homo sapiens, UniProt P00742); assay: Compound was evaluated for its 50% inhibitory concentration against Coagulation factor X
Serine protease 1 [4] = target: T4, Serine protease 1 (Bos taurus, UniProt P00760); assay: Compound was evaluated for its 50% inhibitory concentration against cow protease enzyme trypsin
T4 sequence (P00760 whole entry): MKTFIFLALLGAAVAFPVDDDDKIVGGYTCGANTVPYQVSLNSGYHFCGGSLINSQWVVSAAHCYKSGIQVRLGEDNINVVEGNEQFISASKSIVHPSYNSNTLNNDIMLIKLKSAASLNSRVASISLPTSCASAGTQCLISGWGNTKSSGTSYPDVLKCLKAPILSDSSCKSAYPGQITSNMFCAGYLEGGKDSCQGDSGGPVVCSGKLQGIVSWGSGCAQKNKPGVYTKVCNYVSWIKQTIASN

Prothrombin [5] = target: T5, Prothrombin (Homo sapiens, UniProt P00734); assay: Compound was evaluated for its 50 percent inhibitory concentration against human thrombin factor (FIIa)
Coagulation factor X [6] = target: T3, Coagulation factor X
Plasminogen [7] = target: T2, Plasminogen
Plasminogen [8] = target: T2, Plasminogen; assay: Compound was evaluated for its 50% inhibitory concentration against human protease enzyme plasmin; Inactive
Serine protease 1 [9] = target: Serine protease 1 (Homo sapiens, UniProt P07477); assay: Compound was evaluated for its 50% inhibitory concentration against human protease enzyme trypsin
Coagulation factor VII [10] = target: T1, Coagulation factor VII; assay: Compound was evaluated for its 50 percent inhibitory concentration against human Coagulation factor VII; inactive
Prothrombin [11] = target: T5, Prothrombin
Coagulation factor VII [12] = target: T1, Coagulation factor VII; assay: Compound was evaluated for its 50 percent inhibitory concentration against human Coagulation factor VII: Inactive

T2 sequence (P00747 97-580 limits assumed): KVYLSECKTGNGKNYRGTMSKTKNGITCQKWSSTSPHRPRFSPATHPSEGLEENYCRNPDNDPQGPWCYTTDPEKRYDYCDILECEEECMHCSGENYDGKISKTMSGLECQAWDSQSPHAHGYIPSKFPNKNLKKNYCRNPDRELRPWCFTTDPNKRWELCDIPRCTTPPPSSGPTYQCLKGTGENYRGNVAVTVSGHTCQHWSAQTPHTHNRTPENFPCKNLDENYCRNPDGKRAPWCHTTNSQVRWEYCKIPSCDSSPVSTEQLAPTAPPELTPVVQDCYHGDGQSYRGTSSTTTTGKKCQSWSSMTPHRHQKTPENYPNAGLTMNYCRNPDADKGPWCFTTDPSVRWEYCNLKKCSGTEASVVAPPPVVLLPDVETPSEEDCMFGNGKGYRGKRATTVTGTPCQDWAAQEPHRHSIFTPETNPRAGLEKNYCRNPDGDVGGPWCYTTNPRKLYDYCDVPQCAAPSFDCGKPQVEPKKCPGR
T2 sequence (P00747 581-810 limits assumed): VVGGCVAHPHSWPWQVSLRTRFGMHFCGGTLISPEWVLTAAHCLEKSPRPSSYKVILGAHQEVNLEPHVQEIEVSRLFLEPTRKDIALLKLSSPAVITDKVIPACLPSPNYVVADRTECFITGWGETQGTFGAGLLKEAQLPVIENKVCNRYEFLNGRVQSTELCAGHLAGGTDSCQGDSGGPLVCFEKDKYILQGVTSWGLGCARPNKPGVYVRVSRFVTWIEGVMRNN
Chain of Serine protease 1 (Homo sapiens, UniProt P07477) (P07477 whole entry): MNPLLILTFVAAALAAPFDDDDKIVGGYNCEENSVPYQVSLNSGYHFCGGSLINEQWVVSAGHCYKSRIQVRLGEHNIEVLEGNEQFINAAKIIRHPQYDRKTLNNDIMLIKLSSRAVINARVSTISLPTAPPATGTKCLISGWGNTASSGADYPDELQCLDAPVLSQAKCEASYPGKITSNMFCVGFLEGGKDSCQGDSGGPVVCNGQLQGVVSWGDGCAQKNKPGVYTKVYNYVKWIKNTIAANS
T3 sequence (P00742 41-179 limits assumed): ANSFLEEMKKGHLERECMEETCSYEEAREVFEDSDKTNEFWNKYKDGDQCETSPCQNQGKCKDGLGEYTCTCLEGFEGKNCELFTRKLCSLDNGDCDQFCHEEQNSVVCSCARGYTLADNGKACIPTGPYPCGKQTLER
T3 sequence (P00742 235-488 limits assumed): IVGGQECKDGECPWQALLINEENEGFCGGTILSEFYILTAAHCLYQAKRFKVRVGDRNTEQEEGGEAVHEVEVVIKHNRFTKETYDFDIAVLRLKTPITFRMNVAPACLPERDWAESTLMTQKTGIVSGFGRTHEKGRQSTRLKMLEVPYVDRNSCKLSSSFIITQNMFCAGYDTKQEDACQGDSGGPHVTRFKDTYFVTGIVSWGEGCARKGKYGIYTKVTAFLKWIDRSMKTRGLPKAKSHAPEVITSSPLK

`CC(C)(C)OC(=O)N[C@@H](CC(=O)O)C(=O)N1CCCC1C(=O)N[C@@H](CCCN=C(N)N)C(=O)C(=O)NCCc1ccccc1` (some centres undefined) showed an IC50 (Coagulation factor VII [1]) of 706 nM, an IC50 (Plasminogen [2]) of 2710 nM and an IC50 (Coagulation factor X [3]) of 698 nM. For the same compound, the IC50 (Serine protease 1 [4]) was 0.76 nM and the IC50 (Prothrombin [5]) was 2.3 nM.
With `CCOC(=O)CN(NC(C)=O)C(=O)[C@@H]1CCCC[C@H]1C(=O)N[C@H](C=O)CCCN=C(N)N` the IC50 (Coagulation factor X [6]) was “Not Active”, the IC50 (Plasminogen [7]) was “Not Active” and the IC50 (Coagulation factor VII [1]) was > 25000 nM. For the same compound, the IC50 (Serine protease 1 [4]) was 590 nM and the IC50 (Prothrombin [5]) was 22100 nM.
`CCCC(CCC)C(=O)NN(CC(=O)OCC)C(=O)[C@@H]1CCCC[C@H]1C(=O)N[C@@H](CCCN=C(N)N)C(=O)C(=O)NCCc1ccccc1` was tested, and the IC50 (Coagulation factor X [6]) was “Not Active”, the IC50 (Plasminogen [8]) was “Not Active” and the IC50 (Serine protease 1 [9]) was 22200 nM. For the same compound, the IC50 (Coagulation factor VII [10]) was “Not Active” and the IC50 (Prothrombin [5]) was 13200 nM.
`CCOC(=O)CN(NC(=O)OC(C)(C)C)C(=O)[C@@H]1CCCC[C@H]1C(=O)N[C@H](C=O)CCCN=C(N)N` was tested, and the IC50 (Coagulation factor X [6]) was “Not Active”, the IC50 (Plasminogen [7]) was “Not Active” and the IC50 (Coagulation factor VII [1]) was 22000 nM. The IC50 (Serine protease 1 [4]) was 250 nM and the IC50 (Prothrombin [5]) was > 2500 nM.
For `CC(=O)NN(CCCc1ccccc1)C(=O)[C@@H]1CCCC[C@H]1C(=O)N[C@H](C=O)CCCN=C(N)N`, the IC50 (Coagulation factor X [6]) was “Not Active”, the IC50 (Serine protease 1 [9]) was 5700 nM and the IC50 (Plasminogen [7]) was “Not Active”. For the same compound, the IC50 (Coagulation factor VII [1]) was > 25000 nM and the IC50 (Prothrombin [5]) was 12800 nM.
`CC(=O)NN(Cc1ccccc1)C(=O)[C@@H]1CCCC[C@H]1C(=O)N[C@@H](CCCN=C(N)N)C(=O)C(=O)NCCc1ccccc1` was tested, and the IC50 (Coagulation factor X [6]) was “Not Active”, the IC50 (Coagulation factor VII [1]) was 8500 nM and the IC50 (Plasminogen [2]) was > 2500 nM. For the same compound, the IC50 (Serine protease 1 [4]) was 108 nM and the IC50 (Prothrombin [5]) was 3200 nM.
In the case of `CC(=O)NN(Cc1ccccc1)C(=O)[C@@H]1CCCC[C@H]1C(=O)N[C@H](C=O)CCCN=C(N)N`, the IC50 (Coagulation factor X [6]) is reported as “Not Active”, the IC50 (Prothrombin [11]) is reported as “Not Active” and the IC50 (Plasminogen [7]) is reported as “Not Active”. The IC50 (Coagulation factor VII [1]) was > 25000 nM and the IC50 (Serine protease 1 [4]) was > 2500 nM.
With `CC(C)(C)OC(=O)NN(Cc1ccccc1)C(=O)[C@@H]1CCCC[C@H]1C(=O)N[C@H](C=O)CCCN=C(N)N` the IC50 (Coagulation factor X [6]) was “Not Active”, the IC50 (Plasminogen [7]) was “Not Active” and the IC50 (Coagulation factor VII [1]) was > 25000 nM. The IC50 (Serine protease 1 [4]) was > 2500 nM and the IC50 (Prothrombin [5]) was > 2500 nM.
With `CCOC(=O)CN(NC(=O)OC(C)(C)C)C(=O)[C@@H]1CCCC[C@H]1C(=O)N[C@@H](CCCN=C(N)N)C(=O)C(=O)NCCc1ccccc1` the IC50 (Coagulation factor X [6]) was “Not Active”, the IC50 (Plasminogen [7]) was “Not Active” and the IC50 (Coagulation factor VII [1]) was 25000 nM. The IC50 (Serine protease 1 [4]) was 250 nM and the IC50 (Prothrombin [5]) was > 2500 nM.
In the case of `COC(=O)CN(NC(=O)OC(C)(C)C)C(=O)[C@@H]1CCCC[C@H]1C(=O)N[C@@H](CCCN=C(N)N)C(=O)C(=O)NCCc1ccccc1`, the IC50 (Coagulation factor X [6]) is reported as “Not Active”, the IC50 (Prothrombin [11]) is reported as “Not Active” and the IC50 (Plasminogen [7]) is reported as “Not Active”. It also gave an IC50 (Coagulation factor VII [1]) of 18000 nM and an IC50 (Serine protease 1 [4]) of 1310 nM.
With `CC(C)(C)OC(=O)NN(Cc1ccccc1)C(=O)[C@@H]1CCCC[C@H]1C(=O)N[C@@H](CCCN=C(N)N)C(=O)C(=O)NCCc1ccccc1` the IC50 (Coagulation factor X [6]) was “Not Active”, the IC50 (Serine protease 1 [9]) was 250 nM and the IC50 (Plasminogen [7]) was “Not Active”. The IC50 (Prothrombin [5]) was 880 nM and the IC50 (Coagulation factor VII [12]) was “Not Active”.
In the case of `CC(=O)N[C@H](Cc1ccccc1)C(=O)N1CCC[C@H]1C(=O)N[C@H]1CCCN(C(=N)N)C1O` (some centres undefined), the IC50 (Coagulation factor VII [1]) is reported as 4300 nM, the IC50 (Plasminogen [2]) is reported as > 2500 nM and the IC50 (Coagulation factor X [3]) is reported as > 2500 nM. The IC50 (Serine protease 1 [4]) was 156 nM.
